Assay results reported in BindingDB's records for doi:10.1016/s0960-894x(98)00562-9 (The Procter & Gamble, 1999).

The molecules below were run against Plasmin (Homo sapiens) (assay: Inhibitory activity of compound against Plasmin (HP)).

Ki [nM] | Compound
120 | CC(C)(C)[C@@H](NC(=O)OC12CC3CC(CC(C3)C1)C2)C(=O)N[C@@H](Cc1ccccc1)C(=O)NC(Cc1ccc(NC(=N)N)cc1)C(=O)C(F)(F)F (stereo partly drawn) [((R)-2,2-Dimethyl-1-{(S)-2-phenyl-1-[3,3,3-trifluoro-1-(4-guanidino-benzyl)-2-oxo-propylcarbamoyl]-ethylcarbamoyl}-propyl)-carbamic acid adamantan-1-yl ester]
40 | N=C(N)Nc1ccc(CC(NC(=O)[C@H](Cc2ccccc2)NC(=O)[C@@H](CCc2ccccc2)NC(=O)OC23CC4CC(CC(C4)C2)C3)C(=O)C(F)(F)F)cc1 (stereo partly drawn) [((R)-3-Phenyl-1-{(S)-2-phenyl-1-[3,3,3-trifluoro-1-(4-guanidino-benzyl)-2-oxo-propylcarbamoyl]-ethylcarbamoyl}-propyl)-carbamic acid adamantan-1-yl ester]
110000 | CC(C)(C)[C@@H](NC(=O)N1CCOCC1)C(=O)NCC(=O)NC(Cc1ccc(NC(=N)N)cc1)C(=O)C(F)(F)F (stereo partly drawn) [Morpholine-4-carboxylic acid [(R)-2,2-dimethyl-1-({[3,3,3-trifluoro-1-(4-guanidino-benzyl)-2-oxo-propylcarbamoyl]-methyl}-carbamoyl)-propyl]-amide]
60 | CC(C)(C)OC(=O)N[C@H](Cc1ccccc1)C(=O)N[C@H](C(=O)NC(Cc1ccc(NC(=N)N)cc1)C(=O)C(F)(F)F)c1ccc2ccccc2c1 (stereo partly drawn) [[(R)-1-({(S)-Naphthalen-2-yl-[3,3,3-trifluoro-1-(4-guanidino-benzyl)-2-oxo-propylcarbamoyl]-methyl}-carbamoyl)-2-phenyl-ethyl]-carbamic acid tert-butyl ester]
